Test results published in ChEMBL document CHEMBL5724914, “Linking interpersonal differences in gut microbiota composition and drug biotransformation activity” (2024).

Experiments:
[1] = (§1) The drug is tested on Z-030 corresponding to mouse gut metagenome with ENA study accession number: PRJEB37062 and ENA sample accession number: ERS12561829 for biotransformation under anaerobic condition. The drug concentrations were measured over 9 timepoints collected between 0 and 24 hours of incubation by liquid-chromatography-coupled mass spectrometry (LC–MS); details: 2 µM
[2] = as §1, with “Z-029” for “Z-030”, “rat” for “mouse”, “ERS12561828” for “ERS12561829”; details: 2 µM
[3] = as §1, with “Z-027” for “Z-030”, “to” for “to mouse gut”, “ERS12561826” for “ERS12561829”; details: 2 µM
[4] = as §1, with “Z-018” for “Z-030”, “pig” for “mouse”, “ERS12561817” for “ERS12561829”; details: 2 µM
[5] = as §1, with “Z-014” for “Z-030”, “rat” for “mouse”, “ERS12561814” for “ERS12561829”; details: 2 µM
[6] = as §1, with “Z-009” for “Z-030”, “pig” for “mouse”, “ERS12561809” for “ERS12561829”; details: 2 µM
[7] = as §1, with “Z-008” for “Z-030”, “to” for “to mouse gut”, “ERS12561808” for “ERS12561829”; details: 2 µM
[8] = as §1, with “Z-007” for “Z-030”, “rat” for “mouse”, “ERS12561807” for “ERS12561829”; details: 2 µM
[9] = as §1, with “Z-003” for “Z-030”, “pig” for “mouse”, “ERS12561803” for “ERS12561829”; details: 2 µM
[10] = as §1, with “Z-001” for “Z-030”, “ERS12561801” for “ERS12561829”; details: 2 µM
[11] = as §1, with “WLS-370” for “Z-030”, “human” for “mouse”, “ERS12561793” for “ERS12561829”; details: 2 µM
[12] = as §1, with “WLS-098” for “Z-030”, “human” for “mouse”, “ERS12561754” for “ERS12561829”; details: 2 µM
[13] = as §1, with “WLS-082” for “Z-030”, “human” for “mouse”, “ERS12561751” for “ERS12561829”; details: 2 µM
[14] = as §1, with “WLS-073” for “Z-030”, “human” for “mouse”, “ERS12561749” for “ERS12561829”; details: 2 µM
[15] = as §1, with “WLS-069” for “Z-030”, “human” for “mouse”, “ERS12561748” for “ERS12561829”; details: 2 µM
[16] = human gut metagenome, 24 h, 2 µM
[17] = human gut metagenome, 24 h, 2 µM; remark: listed apart in the source
[18] = human gut metagenome, 24 h, 2 µM; remark: listed apart in the source
[19] = human gut metagenome, 24 h, 2 µM; remark: listed apart in the source
[20] = human gut metagenome, 24 h, 2 µM; remark: listed apart in the source
Note: call rule not given here.

SMILES | Bacterial Biotransformation [1] | Bacterial Biotransformation [2] | Bacterial Biotransformation [3] | Bacterial Biotransformation [4] | Bacterial Biotransformation [5] | Bacterial Biotransformation [6] | Bacterial Biotransformation [7] | Bacterial Biotransformation [8] | Bacterial Biotransformation [9] | Bacterial Biotransformation [10] | Bacterial Biotransformation [11] | Bacterial Biotransformation [12] | Bacterial Biotransformation [13] | Bacterial Biotransformation [14] | Bacterial Biotransformation [15] | Bacterial Biotransformation [16] | Bacterial Biotransformation [17] | Bacterial Biotransformation [18] | Bacterial Biotransformation [19] | Bacterial Biotransformation [20]
CCOc1cc(CC(=O)N[C@@H](CC(C)C)c2ccccc2N2CCCCC2)ccc1C(=O)O [REPAGLINIDE] | Compound NOT metabolized | Compound NOT metabolized | Compound metabolized | Compound NOT metabolized | Compound NOT metabolized | Compound metabolized | Compound metabolized | Compound metabolized | Compound metabolized | Compound metabolized | Compound metabolized | Compound metabolized | Compound metabolized | Compound metabolized | Compound metabolized | Compound metabolized | Compound metabolized | Compound metabolized | Compound metabolized | Compound NOT metabolized
COC(=O)[C@H](c1ccccc1Cl)N1CCc2sccc2C1.O=S(=O)(O)O [CLOPIDOGREL BISULFATE] | Compound NOT metabolized | Compound NOT metabolized | Compound metabolized | Compound metabolized | Compound NOT metabolized | Compound metabolized | Compound metabolized | Compound NOT metabolized | Compound metabolized | Compound metabolized | Compound metabolized | Compound metabolized | Compound metabolized | Compound metabolized | Compound metabolized | Compound metabolized | Compound metabolized | Compound metabolized | Compound metabolized | Compound metabolized
CCN(C(C)=O)c1cccc(-c2ccnc3c(C#N)cnn23)c1 [ZALEPLON] | Compound NOT metabolized | Compound NOT metabolized | Compound NOT metabolized | Compound metabolized | Compound NOT metabolized | Compound metabolized | Compound NOT metabolized | Compound NOT metabolized | Compound metabolized | Compound NOT metabolized | Compound metabolized | Compound metabolized | Compound metabolized | Compound metabolized | Compound metabolized | Compound NOT metabolized | Compound metabolized | Compound metabolized | Compound metabolized | Compound metabolized
CC(C)(C)NCC(O)c1cc(Cl)c(N)c(Cl)c1 (stereo not given) [CLENBUTEROL] | Compound NOT metabolized | Compound NOT metabolized | Compound NOT metabolized | Compound NOT metabolized | Compound NOT metabolized | Compound NOT metabolized | Compound NOT metabolized | Compound NOT metabolized | Compound NOT metabolized | Compound NOT metabolized | Compound NOT metabolized | Compound NOT metabolized | Compound NOT metabolized | Compound NOT metabolized | Compound NOT metabolized | Compound NOT metabolized | Compound NOT metabolized | Compound NOT metabolized | Compound NOT metabolized | Compound NOT metabolized
Cc1ccccc1C(OCCN(C)C)c1ccccc1.O=C(O)CC(O)(CC(=O)O)C(=O)O (stereo not given) [ORPHENADRINE CITRATE] | Compound NOT metabolized | Compound NOT metabolized | Compound NOT metabolized | Compound metabolized | Compound NOT metabolized | Compound metabolized | Compound NOT metabolized | Compound NOT metabolized | Compound NOT metabolized | Compound metabolized | Compound NOT metabolized | Compound NOT metabolized | Compound NOT metabolized | Compound NOT metabolized | Compound NOT metabolized | Compound NOT metabolized | Compound NOT metabolized | Compound NOT metabolized | Compound NOT metabolized | Compound metabolized
O=C1CN2Cc3c(ccc(Cl)c3Cl)N=C2N1 [ANAGRELIDE] | Compound NOT metabolized | Compound NOT metabolized | Compound NOT metabolized | Compound NOT metabolized | Compound NOT metabolized | Compound NOT metabolized | Compound NOT metabolized | Compound NOT metabolized | Compound NOT metabolized | Compound NOT metabolized | Compound NOT metabolized | Compound metabolized | Compound metabolized | Compound NOT metabolized | Compound metabolized | Compound NOT metabolized | Compound metabolized | Compound metabolized | Compound NOT metabolized | Compound metabolized
Clc1cccc(Cl)c1N=C1NCCN1 [CLONIDINE] | Compound NOT metabolized | Compound NOT metabolized | Compound NOT metabolized | Compound metabolized | Compound NOT metabolized | Compound metabolized | Compound NOT metabolized | Compound NOT metabolized | Compound metabolized | Compound metabolized | Compound NOT metabolized | Compound metabolized | Compound NOT metabolized | Compound NOT metabolized | Compound metabolized | Compound NOT metabolized | Compound NOT metabolized | Compound metabolized | Compound metabolized | Compound metabolized
CC(=O)O[C@]1(C(C)=O)CC[C@H]2[C@@H]3C=C(C)C4=CC(=O)CC[C@]4(C)[C@H]3CC[C@@]21C [MEGESTROL ACETATE] | Compound NOT metabolized | Compound NOT metabolized | Compound metabolized | Compound metabolized | Compound NOT metabolized | Compound metabolized | Compound NOT metabolized | Compound metabolized | Compound metabolized | Compound metabolized | Compound metabolized | Compound metabolized | Compound metabolized | Compound metabolized | Compound metabolized | Compound metabolized | Compound metabolized | Compound metabolized | Compound metabolized | Compound metabolized
